These results are taken from patent US8278473B2, “Alpha, beta-unsaturated imidate compound and pesticidal composition containing the same” (Sumitomo Chemical Company, Limited, priority 2007, dated 2012).

The subject of the experiment is Haemaphysalis longicornis. The experiment is described as follows: Test Example 10: Haemaphysalis longicornis, treated filter paper pouch. The experiment is classed as in vivo. The following applies: 0.5 mg compound on filter paper 5×10 cm; non-blood sucking nymphal ticks; after 2 days. The procedure:
In 1 mL of acetone, 0.5 mg of any one of the present compounds 1 to 48 was dissolved, and the solution was spread uniformly on one side of a filter paper (TOYO No. 2; 5×10 cm). After dried, the filter paper was folded into two, and the sides were clipped to make a pouch. Into the pouch, tested ticks (Haemaphysalis longicornis, non-blood sucking nymphal ticks, 10 ticks in a group) were placed. The pouch was clipped and sealed. After 2 days, the number of dead ticks was counted.
Molecule `CC(=COc1cccc(C)c1)C(=Nc1ccccc1)Oc1ccccc1` [Compound 175, phenyl 2-methyl-3-(3-methylphenyloxy)-N-phenyl-2-propenimidate] returned a death rate of 100%.

Take `CC(=COc1cccc(C)c1)C(=Nc1ccccc1)Oc1cccc(C)c1` [Compound 176, 3-methylphenyl 2-methyl-3-(3-methylphenyloxy)-N-phenyl-2-propenimidate]: the death rate was determined as 100%.

On to `CCc1cccc(OC(=Nc2ccccc2)C(C)=COc2cccc(C)c2)c1` [Compound 177, 3-ethylphenyl 2-methyl-3-(3-methylphenyloxy)-N-phenyl-2-propenimidate], for which the death rate came out at 100%.

On to `CC(=COc1cccc(C)c1)C(=Nc1ccccc1)Oc1cccc(C(C)C)c1` [Compound 178, 3-isopropylphenyl 2-methyl-3-(3-methylphenyloxy)-N-phenyl-2-propenimidate], for which the death rate was 100%.

For `CCOc1cccc(OC(=Nc2ccccc2)C(C)=COc2cccc(C)c2)c1` [Compound 179, 3-ethoxyphenyl 2-methyl-3-(3-methylphenyloxy)-N-phenyl-2-propenimidate], the death rate is reported as 100%.

As to `CC(=COc1cccc(C)c1)C(=Nc1ccccc1)Oc1cc(C)cc(C)c1` [Compound 182, 3,5-dimethylphenyl 2-methyl-3-(3-methylphenyloxy)-N-phenyl-2-propenimidate], the death rate came to 100%.

`CC(=COc1cccc(C)c1)C(=Nc1ccc(C)cc1)Oc1ccccc1` [Compound 183, phenyl 2-methyl-N-(4-methylphenyl)-3-(3-methylphenyloxy)-2-propenimidate] registered a death rate of 100%.

In turn, `CC(=COc1cccc(C)c1)C(=Nc1ccc(C)cc1)Oc1cccc(C)c1` [Compound 184, 3-methylphenyl 2-methyl-N-(4-methylphenyl)-3-(3-methylphenyloxy)-2-propenimidate] showed a death rate of 100%.

Consider `CCc1cccc(OC(=Nc2ccc(C)cc2)C(C)=COc2cccc(C)c2)c1` [Compound 185, 3-ethylphenyl 2-methyl-N-(4-methylphenyl)-3-(3-methylphenyloxy)-2-propenimidate], for which the death rate stood at 100%.

Consider `CCOc1cccc(OC(=Nc2ccc(C)cc2)C(C)=COc2cccc(C)c2)c1` [Compound 186, 3-ethoxyphenyl 2-methyl-N-(4-methylphenyl)-3-(3-methylphenyloxy)-2-propenimidate], for which the death rate stood at 100%.

In turn, `COc1ccc(N=C(Oc2ccccc2)C(C)=COc2cccc(C)c2)cc1` [Compound 188, phenyl N-(4-methoxyphenyl)-2-methyl-3-(3-methylphenyloxy)-2-propenimidate] had a death rate of 100%.

`COc1ccc(N=C(Oc2cccc(C)c2)C(C)=COc2cccc(C)c2)cc1` [Compound 189, 3-methylphenyl N-(4-methoxyphenyl)-2-methyl-3-(3-methylphenyloxy)-2-propenimidate]: the death rate is on record as 100%.

`CC(=COc1ccc(C)cc1)C(=Nc1ccccc1)Oc1ccccc1C` [Compound 194, 2-methylphenyl 2-methyl-3-(4-methylphenyloxy)-N-phenyl-2-propenimidate] gave a death rate of 100%.

Molecule `CC(=COc1ccc(C)cc1)C(=Nc1ccccc1)Oc1cccc(C)c1` [Compound 195, 3-methylphenyl 2-methyl-3-(4-methylphenyloxy)-N-phenyl-2-propenimidate] gave a death rate of 100%.

Consider `CC(=COc1ccc(C)cc1)C(=Nc1ccccc1)Oc1cccc(F)c1` [Compound 198, 3-fluorophenyl 2-methyl-3-(4-methylphenyloxy)-N-phenyl-2-propenimidate], for which the death rate was found to be 100%.

Regarding `CC(=COc1ccc(C)cc1)C(=Nc1ccccc1)Oc1ccc(F)cc1` [Compound 199, 4-fluorophenyl 2-methyl-3-(4-methylphenyloxy)-N-phenyl-2-propenimidate], the death rate is reported as 100%.

Regarding `CC(=COc1ccc(C)cc1)C(=Nc1ccccc1)Oc1ccc(Cl)cc1` [Compound 202, 4-chlorophenyl 2-methyl-3-(4-methylphenyloxy)-N-phenyl-2-propenimidate], the death rate came to 100%.

Turning to `COc1ccc(OC(=Nc2ccccc2)C(C)=COc2ccc(C)cc2)cc1` [Compound 205, 4-methoxyphenyl 2-methyl-3-(4-methylphenyloxy)-N-phenyl-2-propenimidate], the death rate is 100%.

`CC(=COc1ccc(C)cc1)C(=Nc1ccccc1)Oc1cccc(C(F)(F)F)c1` [Compound 206, 3-(trifluoromethyl)phenyl 2-methyl-3-(4-methylphenyloxy)-N-phenyl-2-propenimidate] registered a death rate of 100%.

On to `CC(=COc1ccc(C)cc1)C(=Nc1ccccc1)Oc1ccc2ccccc2c1` [Compound 207, 2-naphthyl 2-methyl-3-(4-methylphenyloxy)-N-phenyl-2-propenimidate], for which the death rate is 100%.

In the case of `CC(=COc1ccc(C)cc1)C(=Nc1ccc(C)cc1)Oc1cccc(C)c1` [Compound 210, 3-methylphenyl 2-methyl-N-(4-methylphenyl)-3-(4-methylphenyloxy)-2-propenimidate], the death rate is given as 100%.

`CC(=COc1ccc(C)cc1)C(=Nc1ccc(C)cc1)Oc1cccc(F)c1` [Compound 214, 3-fluorophenyl 2-methyl-N-(4-methylphenyl)-3-(4-methylphenyloxy)-2-propenimidate]: the death rate was 100%.

The molecule `CC(=COc1ccc(C)cc1)C(=Nc1ccc(C)cc1)Oc1ccc(F)cc1` [Compound 215, 4-fluorophenyl 2-methyl-N-(4-methylphenyl)-3-(4-methylphenyloxy)-2-propenimidate] had a death rate of 100%.

Regarding `COc1cccc(OC(=Nc2ccc(C)cc2)C(C)=COc2ccc(C)cc2)c1` [Compound 220, 3-methoxyphenyl 2-methyl-N-(4-methylphenyl)-3-(4-methylphenyloxy)-2-propenimidate], the death rate worked out at 100%.

Consider `COc1ccc(OC(=Nc2ccc(C)cc2)C(C)=COc2ccc(C)cc2)cc1` [Compound 221, 4-methoxyphenyl 2-methyl-N-(4-methylphenyl)-3-(4-methylphenyloxy)-2-propenimidate], for which the death rate came to 100%.

In turn, `COc1ccc(N=C(Oc2cccc(C)c2)C(C)=COc2ccc(C)cc2)cc1` [Compound 225, 3-methylphenyl N-(4-methoxyphenyl)-2-methyl-3-(4-methylphenyloxy)-2-propenimidate] came in with a death rate of 100%.

`CCc1ccc(OC=C(C)C(=Nc2ccccc2)Oc2ccccc2)cc1` [Compound 229, phenyl 3-(4-ethylphenyloxy)-2-methyl-N-phenyl-2-propenimidate]: the death rate turned out to be 100%.

The molecule `CC(=COc1ccc(C(C)C)cc1)C(=Nc1ccccc1)Oc1ccccc1` [Compound 230, phenyl 3-(4-isopropylphenyloxy)-2-methyl-N-phenyl-2-propenimidate] returned a death rate of 100%.

`CC(=COc1ccc(Cl)cc1)C(=Nc1ccccc1)Oc1ccccc1` [Compound 231, phenyl 3-(4-chlorophenyloxy)-2-methyl-N-phenyl-2-propenimidate] returned a death rate of 100%.

`COc1ccccc1OC=C(C)C(=Nc1ccccc1)Oc1ccccc1` [Compound 232, phenyl 3-(2-methoxyphenyloxy)-2-methyl-N-phenyl-2-propenimidate] gave a death rate of 100%.
